Reference: patent US10722514B2 (FLX Bio, Inc., priority 2017, dated 2020)
Where a name gives a salt, the structure may show the parent alone.

Target: T1, recombinant full-length USP7 (Homo sapiens, UniProt Q93009)
T1 construct: A 25 μl reaction volume containing recombinant full-length USP7 (62 pM)
Experiment: USP7-mediated ubiquitin-rhodamine cleavage assay
Format: biochemical
Conditions: recombinant full-length USP7 62 pM; ubiquitin-rhodamine 100 nM; 30-minute incubation with compound, 1 hour reaction at room temperature; read-out: Potency: USP7 IC50
Summary of the method: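 After compound and enzyme (62 pM) sat together 30 min at RT, 100 nM fluorogenic ubiquitin-rhodamine substrate was added for 1 h protected from light. Acetic acid quenched the reaction prior to the fluorescence read.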

T1 sequence (Q93009 whole entry): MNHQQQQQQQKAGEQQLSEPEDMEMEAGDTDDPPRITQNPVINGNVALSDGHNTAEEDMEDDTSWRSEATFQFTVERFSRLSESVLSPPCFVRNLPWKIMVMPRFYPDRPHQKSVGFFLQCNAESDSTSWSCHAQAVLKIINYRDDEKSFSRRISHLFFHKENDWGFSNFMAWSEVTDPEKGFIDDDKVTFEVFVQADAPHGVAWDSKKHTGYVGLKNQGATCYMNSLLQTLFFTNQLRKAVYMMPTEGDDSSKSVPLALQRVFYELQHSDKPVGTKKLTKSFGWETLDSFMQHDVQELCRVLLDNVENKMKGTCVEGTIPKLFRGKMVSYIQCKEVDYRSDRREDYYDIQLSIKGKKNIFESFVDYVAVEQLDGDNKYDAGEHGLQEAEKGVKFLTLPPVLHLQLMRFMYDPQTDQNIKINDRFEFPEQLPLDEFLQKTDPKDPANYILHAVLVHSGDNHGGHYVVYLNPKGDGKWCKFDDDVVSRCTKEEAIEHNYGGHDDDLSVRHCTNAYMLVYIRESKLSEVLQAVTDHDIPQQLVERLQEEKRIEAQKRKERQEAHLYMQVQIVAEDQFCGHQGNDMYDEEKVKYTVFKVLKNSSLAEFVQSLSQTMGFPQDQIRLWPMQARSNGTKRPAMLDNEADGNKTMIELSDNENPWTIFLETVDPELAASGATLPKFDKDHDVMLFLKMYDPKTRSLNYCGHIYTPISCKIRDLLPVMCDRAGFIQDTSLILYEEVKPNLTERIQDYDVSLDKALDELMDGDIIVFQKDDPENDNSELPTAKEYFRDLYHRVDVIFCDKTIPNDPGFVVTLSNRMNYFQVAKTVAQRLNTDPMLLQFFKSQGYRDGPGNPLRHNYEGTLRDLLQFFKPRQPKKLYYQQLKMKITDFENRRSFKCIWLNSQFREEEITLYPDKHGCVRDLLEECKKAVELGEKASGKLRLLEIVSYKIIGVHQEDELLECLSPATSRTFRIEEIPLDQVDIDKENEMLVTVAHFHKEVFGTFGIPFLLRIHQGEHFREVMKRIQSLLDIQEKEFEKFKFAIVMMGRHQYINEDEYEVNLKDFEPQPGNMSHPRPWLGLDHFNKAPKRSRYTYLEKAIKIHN

Question: `Cc1cc(Cl)cc(-c2ccnc3cc(CN4C(=O)C5C(C4=O)C5(C)C)sc23)c1O[C@@H]1CCNC[C@@H]1C` (stereo partly drawn) [Example 366, 3-[[7-[5-chloro-3-methyl-2-[[(3S,4R)-3-methyl-4-piperidyl]oxy]phenyl]thieno[3,2-b]pyridin-2-yl]methyl]-6,6-dimethyl-3-azabicyclo[3.1.0]hexane-2,4-dione dihydrochloride] was tested. Which IC50 did it give?
Answer: The IC50 was less than 1000 nM.

Question: With `Cc1cc(Cl)cc(-c2ccnc3cc(Cn4c(=O)ccn(C)c4=O)sc23)c1OC1CCNCC1` [Example 195, 3-((7-(5-Chloro-3-methyl-2-(piperidin-4-yloxy)phenyl)thieno[3,2-b]pyridin-2-yl)methyl)-1-methylpyrimidine-2,4(1H,3H)-dione] as the compound, how does the IC50 read?
Answer: The IC50 was less than 1000 nM.

Question: `CCN1C[C@H]2C[C@@H]1[C@H](Oc1c(C)cc(Cl)cc1-c1ncnc3cc(CN4C(=O)C5C(C4=O)C5(C)C)sc13)C2` (stereo partly drawn) [Example 356, 3-[[4-[5-chloro-2-[[(1S,4R,5R)-3-ethyl-3-azabicyclo[2.2.1]heptan-5-yl]oxy]-3-methyl-phenyl]thieno[3,2-d]pyrimidin-6-yl]methyl]-6,6-dimethyl-3-azabicyclo[3.1.0]hexane-2,4-dione dihydrochloride] was tested. Which IC50 did it give?
Answer: The IC50 was less than 1000 nM.

Question: With `Cc1cc(Cl)cc(-c2ccnc3cc(CN4C(=O)C5CC5C4=O)sc23)c1O[C@@H]1CNC[C@@H]1C` (stereo partly drawn) [Example 327, 3-[[7-[5-chloro-3-methyl-2-[(3S,4S)-4-methylpyrrolidin-3-yl]oxy-phenyl]thieno[3,2-b]pyridin-2-yl]methyl]-3-azabicyclo[3.1.0]hexane-2,4-dione] as the compound, how does the IC50 read?
Answer: The IC50 was less than 1000 nM.

Question: For `CCC(O)c1cc2ncnc(-c3cc(Cl)cc(C)c3OC3CCNCC3)c2s1` (stereo not drawn) [Example 181, 1-(4-(5-Chloro-3-methyl-2-(piperidin-4-yloxy)phenyl)thieno[3,2-d]pyrimidin-6-yl)propan-1-ol], which IC50 is on record?
Answer: The IC50 was 1000 to 10000 nM.

Question: Which IC50 does the source give for `Cc1cc(Cl)cc(-c2ncnc3cc(CN4C(=O)CCCC4=O)sc23)c1O[C@H]1CCCNC1` [Example 260, (S)-1-((4-(5-Chloro-3-methyl-2-(piperidin-3-yloxy)phenyl)thieno[3,2-d]pyrimidin-6-yl)methyl)piperidine-2,6-dione] here?
Answer: The IC50 was less than 1000 nM.

Question: How did the IC50 turn out when `CCC(O)c1cc2ncnc(-c3cc(Cl)cc(C)c3O[C@@H]3CNC[C@@H]3F)c2s1` (stereo partly drawn) [Example 94, 1-(4-(5-Chloro-2-(((3R,4S)-4-fluoropyrrolidin-3-yl)oxy)-3-methylphenyl)thieno[3,2-d]pyrimidin-6-yl)propan-1-ol] was run?
Answer: Its IC50 is 1000 to 10000 nM.

Same assay, conditions: recombinant full-length USP7 62 pM; ubiquitin-rhodamine 100 nM; 30-minute pre-incubation, 1 hour reaction at room temperature; read-out: Potency (USP7 IC50)

Question: For `O=C1CCC(=O)N1Cc1cc2nccc(-c3cc(Cl)cc(C(F)F)c3OC3CCNCC3)c2s1` [Example 431, 1-[[7-[5-chloro-3-(difluoromethyl)-2-(4-piperidyloxy)phenyl]thieno[3,2-b]pyridin-2-yl]methyl]pyrrolidine-2,5-dione dihydrochloride], which IC50 is on record?
Answer: Its IC50 is less than 1000 nM.

Question: For `Cc1cc(Cl)cc(-c2ccnc3cc(CN4C(=O)CCC4=O)sc23)c1O[C@H]1CCCN(CC(=O)O)C1` [Example 579, 2-[(3S)-3-[4-chloro-2-[2-[(2,5-dioxopyrrolidin-1-yl)methyl]thieno[3,2-b]pyridin-7-yl]-6-methyl-phenoxy]-1-piperidyl]acetic acid], which IC50 is on record?
Answer: Its IC50 is less than 1000 nM.

Question: `Cc1cc(Cl)cc(-c2ccnc3cc(CN4C(=O)CCC4=O)sc23)c1OC1CCCNC1C` (stereo not drawn) [Example 419, 1-[[7-[5-chloro-3-methyl-2-[(2-methyl-3-piperidyl)oxy]phenyl]thieno[3,2-b]pyridin-2-yl]methyl]pyrrolidine-2,5-dione] was tested. Which IC50 did it give?
Answer: The IC50 was less than 1000 nM.

Question: How did the IC50 turn out when `Cc1cc(Cl)cc(-c2ncnc3cc(Cn4c(=O)ccn(CC(F)(F)F)c4=O)sc23)c1OC1CC2CNC1C2` (stereo not drawn) [Example 526, 3-[[4-[2-(3-azabicyclo[2.2.1]heptan-5-yloxy)-5-chloro-3-methyl-phenyl]thieno[3,2-d]pyrimidin-6-yl]methyl]-1-(2,2,2-trifluoroethyl)pyrimidine-2,4-dione] was run?
Answer: Its IC50 is less than 1000 nM.

Question: Which IC50 does the source give for `Cc1cc(Cl)cc(-c2ncnc3cc(CN4C(=O)C5CC5C4=O)sc23)c1OC1CCCNC1` (stereo not drawn) [Example 412, 3-[[4-[5-chloro-3-methyl-2-(3-piperidyloxy)phenyl]thieno[3,2-d]pyrimidin-6-yl]methyl]-3-azabicyclo[3.1.0]hexane-2,4-dione] here?
Answer: Its IC50 is less than 1000 nM.

Question: How did the IC50 turn out when `Cc1cc(Cl)cc(-c2ccnc3cc(CN4C(=O)CCC4=O)sc23)c1O[C@H]1CNCC[C@@H]1F` [Example 425, 1-[[7-[5-chloro-2-[[(3S,4S)-4-fluoro-3-piperidyl]oxy]-3-methyl-phenyl]thieno[3,2-b]pyridin-2-yl]methyl]pyrrolidine-2,5-dione] was run?
Answer: The IC50 was less than 1000 nM.

Question: For `Cc1cc(Cl)cc(-c2ccnc3cc(Cn4c(=O)c(F)cn(C(C)C)c4=O)sc23)c1O[C@@H]1CCNC[C@@H]1C` [Example 550, 3-[[7-[5-chloro-3-methyl-2-[[(3S,4R)-3-methyl-4-piperidyl]oxy]phenyl]thieno[3,2-b]pyridin-2-yl]methyl]-5-fluoro-1-isopropyl-pyrimidine-2,4-dione], which IC50 is on record?
Answer: Its IC50 is less than 1000 nM.

Question: How did the IC50 turn out when `COC[C@H]1C[C@H](Oc2c(C)cc(Cl)cc2-c2ccnc3cc(Cn4c(=O)ccn(CC(F)(F)F)c4=O)sc23)CN1` [Example 650, 3-[[7-[5-chloro-2-[(3S,5R)-5-(methoxymethyl)pyrrolidin-3-yl]oxy-3-methyl-phenyl]thieno[3,2-b]pyridin-2-yl]methyl]-1-(2,2,2-trifluoroethyl)pyrimidine-2,4-dione] was run?
Answer: The IC50 was less than 1000 nM.

Question: How did the IC50 turn out when `Cc1cc(Cl)cc(-c2ccnc3cc(Cn4c(=O)ccn(C)c4=O)sc23)c1O[C@H]1CN[C@H](C(=O)O)C1` [Example 600, (2S,4R)-4-[4-chloro-2-methyl-6-[2-[(3-methyl-2,6-dioxo-pyrimidin-1-yl)methyl]thieno[3,2-b]pyridin-7-yl]phenoxy]pyrrolidine-2-carboxylic acid] was run?
Answer: The IC50 was 1000 to 10000 nM.

Question: Which IC50 does the source give for `Cc1cc(Cl)cc(-c2ccnc3cc(Cn4c(=O)ccn(C)c4=O)sc23)c1OCC1CNC1` [Example 487, 3-[[7-[2-(azetidin-3-ylmethoxy)-5-chloro-3-methyl-phenyl]thieno[3,2-b]pyridin-2-yl]methyl]-1-methyl-pyrimidine-2,4-dione] here?
Answer: Its IC50 is less than 1000 nM.

Question: With `Cc1cc(Cl)cc(-c2ccnc3cc(Cn4c(=O)ccn(CC(F)(F)F)c4=O)sc23)c1O[C@@H]1CCNC[C@@H]1C` [Example 549, 3-[[7-[5-chloro-3-methyl-2-[[(3S,4R)-3-methyl-4-piperidyl]oxy]phenyl]thieno[3,2-b]pyridin-2-yl]methyl]-1-(2,2,2-trifluoroethyl)pyrimidine-2,4-dione] as the compound, how does the IC50 read?
Answer: The IC50 was less than 1000 nM.

Question: `COC[C@@H]1C[C@H](Oc2c(C)cc(Cl)cc2-c2ccnc3cc(Cn4c(=O)ccn(CC(F)(F)F)c4=O)sc23)CN1` [Example 647, 3-[[7-[5-chloro-2-[(3S,5S)-5-(methoxymethyl)pyrrolidin-3-yl]oxy-3-methyl-phenyl]thieno[3,2-b]pyridin-2-yl]methyl]-1-(2,2,2-trifluoroethyl)pyrimidine-2,4-dione] was tested. Which IC50 did it give?
Answer: Its IC50 is less than 1000 nM.

Question: Which IC50 does the source give for `Cc1cc(Cl)cc(-c2ccnc3cc(Cn4c(=O)ccn(C)c4=O)sc23)c1O[C@@H]1CN(C)C[C@@H]1F` [Example 458, 3-[[7-[5-chloro-2-[(3R,4S)-4-fluoro-1-methyl-pyrrolidin-3-yl]oxy-3-methyl-phenyl]thieno[3,2-b]pyridin-2-yl]methyl]-1-methyl-pyrimidine-2,4-dione; 2,2,2-trifluoroacetic acid] here?
Answer: The IC50 was less than 1000 nM.

Question: With `Cc1cc(Cl)cc(-c2ccnc3cc(Cn4c(=O)ccn(C)c4=O)sc23)c1OC1CNCCC1(C)C` (stereo not drawn) [Example 592, 3-[[7-[5-chloro-2-[(4,4-dimethyl-3-piperidyl)oxy]-3-methyl-phenyl]thieno[3,2-b]pyridin-2-yl]methyl]-1-methyl-pyrimidine-2,4-dione] as the compound, how does the IC50 read?
Answer: The IC50 was less than 1000 nM.
